Test results reported in patent US20120195840A1, “PERSONAL CARE COMPOSITION” (priority 2009, published 2012).

Target: T1, human tyrosinase enzyme (Homo sapiens, UniProt P14679)
T1 sequence (P14679 19-529): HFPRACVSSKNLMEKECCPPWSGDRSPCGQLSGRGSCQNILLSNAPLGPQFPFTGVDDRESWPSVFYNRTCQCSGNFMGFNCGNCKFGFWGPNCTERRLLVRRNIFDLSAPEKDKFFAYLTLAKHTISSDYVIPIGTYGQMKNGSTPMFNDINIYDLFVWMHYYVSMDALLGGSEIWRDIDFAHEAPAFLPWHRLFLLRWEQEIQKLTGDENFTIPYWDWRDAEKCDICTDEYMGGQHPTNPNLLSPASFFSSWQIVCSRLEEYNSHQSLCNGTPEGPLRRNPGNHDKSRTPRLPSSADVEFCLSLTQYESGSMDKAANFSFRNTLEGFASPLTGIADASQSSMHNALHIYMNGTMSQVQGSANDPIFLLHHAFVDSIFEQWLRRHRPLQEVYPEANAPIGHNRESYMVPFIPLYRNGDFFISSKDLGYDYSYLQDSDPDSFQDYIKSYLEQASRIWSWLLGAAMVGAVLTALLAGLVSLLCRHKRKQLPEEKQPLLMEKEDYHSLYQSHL
Assay: human tyrosinase inhibition (procedure as for mushroom tyrosinase)
Format: biochemical
Settings: sample at 7.5 ppm
Procedure: An indication of the efficacy of skin lightening was determined using an in-vitro tyrosinanse inhibition assay using mushroom tyrosinase. The assay comprised measuring O-diphenolase activities of mushroom tyrosinase with L-DOPA as substrate. This was determined spectrophotometrically by measuring the rate of dopachrome formation at 450 nm (ε=3700 M−1 cm−1). Inhibition studies were done by measuring the dopachrome formation in the presence of various extracts of plant material. The experiment was conducted using the following procedure:
The following stock solutions were prepared. 0.1 M phosphate buffer (KH2PO4, pH=6.5); 3.5 mM L-DOPA in phosphate buffer; 1 mg/ml mushroom tyrosinase enzyme (100 kU) in phosphate buffer. To the KH2PO4 buffer (q.s. to 200 μL) in a 96 well plate having flat bottom was added the desired sample (about 6 μl) followed by 8 μL of mushroom tyrosinase enzyme. This was left at room temperature in the dark for 15 min to enable incubation. Then L-DOPA (57 μL, […]) was added to the resultant solution and the progress of dopachrome formation was observed by measuring the absorbance at 450 nm (A450) on a Tecan spectrophotometer. Percent inhibition was calculated using (Control: without inhibitor) […]

CCc1ccc(O)cc1O [Example 5, ethyl resorcinol]
% human tyrosinase inhibition: 40%
